Tests used:
[1] = test system: hM4 receptor; assay: Millipore GPCR Profiler functional screen, hM4; format: cell-based, human; details: two-addition protocol, BQCA 12.5 μM in first addition
[2] = test system: 15 other closely related GPCRs; assay: Millipore GPCR Profiler functional screen, GPCR panel; format: cell-based
[3] = test system: hM1 receptor; assay: Millipore GPCR Profiler functional screen, hM1; format: cell-based, human; details: two-addition protocol, BQCA 12.5 μM in first addition
[4] = test system: rat mPFC layer V pyramidal cells; assay: Inward; format: cell-based
[5] = test system: mPFC layer V neurons, wildtype (WT) mice; assay: Spontaneous EPSCs in slices from wild-type mice; format: cell-based, mouse
[6] = test system: rat mPFC layer V pyramidal cells; assay: Spontaneous EPSCs in acute rat brain slices; format: cell-based
[7] = test system: rat mPFC layer V pyramidal cells; format: cell-based; details: 10 μM; 1 μM TTX
[8] = 10 μM applied alone, −70 mV, 1 μM TTX

COc1ccc(Cn2cc(C(=O)[O-])c(=O)c3ccccc32)cc1.[Na+] [BQCA, Sodium 1-(4-methoxybenzyl)-4-oxo-1,4-dihydroquinoline-3-carboxylate]
Activity in the functional screen [1]: no activity | Agonist activity when applied alone in the first addition ([2]; 12.5 μM, any receptor tested): no agonist activity | Effect (PAM or antagonist activity) at the other GPCRs tested ([2]; two-addition protocol, BQCA 12.5 μM in first addition): no effect | Potentiation of the functional response [3]: robust potentiation

C[N+](C)(C)CCOC(N)=O [CCh, carbachol]
Inward current (change in holding current) [4, 8]: 16.55 ± 1.93 pA | Inward current (change in holding current) ([4]; 100 μM applied alone, −70 mV, 1 μM TTX): 53.14 ± 5.92 pA | sEPSC amplitude ([5]; 3 μM applied alone): 102.6 ± 11.7 % of control | sEPSC frequency ([5]; 3 μM applied alone): 83.2 ± 47.1% | sEPSC amplitude ([5]; 30 μM applied alone): 143.1 ± 22.0% | sEPSC frequency ([5]; 30 μM applied alone): 398.3 ± 56.2% | sEPSC amplitude ([6]; 10 μM applied alone): 97.5 ± 4.4 % control | sEPSC frequency ([6]; 10 μM applied alone): 90.1 ± 12.4 % control | sEPSC amplitude ([6]; 30 μM applied alone): 108.3 ± 3.9 % control | sEPSC frequency ([6]; 30 μM applied alone): 455.0 ± 101.9 % control | sEPSC amplitude ([6]; 100 μM applied alone): 154.3 ± 46.2 % control | sEPSC frequency ([6]; 100 μM applied alone): 887.6 ± 268.5 % control | mEPSC amplitude [7]: 88.6 ± 3.8 % control

O=C(CCNS(=O)(=O)c1cccc2nsnc12)N1CCN(c2ccncc2)CC1 [VU0255035]
Inward current (change in holding current) [4, 8]: no effect | Inward current (change in holding current) ([4]; 100 μM CCh in the presence of 10 μM VU0255035): 11.78 ± 1.90 pA | sEPSC amplitude ([6]; 5 μM antagonist with 30 μM CCh): 87.1 ± 3.5 % control | sEPSC frequency ([6]; 5 μM antagonist with 30 μM CCh): 62.5 ± 10.1 % control | sEPSC amplitude ([6]; 5 μM applied alone): 92.9 ± 3.4 % control | sEPSC frequency ([6]; 5 μM applied alone): 114.1 ± 25.8 % control
